For 26 molecules, IC50 and Ki results are on record in ChEMBL document CHEMBL1909046, “DrugMatrix in vitro pharmacology data”.

pIC50, pKi: −log10 of the molar value.

The target in test [1] is Sigma non-opioid intracellular receptor 1 (Homo sapiens, UniProt Q99720). The experiment in a line: DRUGMATRIX: Sigma1 radioligand binding (ligand: [3H] Haloperidol). Type of test: cell membranes, Jurkat, Membrane. Particulars: Not Active = under 50% inhibition at 10 µM; for IC50: jurkat; for pIC50: read-out: IC50; for pKi: read-out: Ki.
Sigma non-opioid intracellular receptor 1, sequence (Q99720 whole entry): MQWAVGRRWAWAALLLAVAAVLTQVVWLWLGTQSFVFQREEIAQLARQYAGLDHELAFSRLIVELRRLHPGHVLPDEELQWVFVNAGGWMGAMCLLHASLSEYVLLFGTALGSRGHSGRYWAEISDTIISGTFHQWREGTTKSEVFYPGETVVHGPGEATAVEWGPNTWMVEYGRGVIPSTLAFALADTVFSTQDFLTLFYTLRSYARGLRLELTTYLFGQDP
Test [2] deals with Beta-1 adrenergic receptor (Homo sapiens, UniProt P08588). Briefly: DRUGMATRIX: Adrenergic beta1 radioligand binding (ligand: [125I] Cyanopindolol). The note with it: cho-k1; Not Active = under 50% inhibition at 10 µM. It counts as cell membranes, CHO-K1, Membrane.
Beta-1 adrenergic receptor, sequence (P08588 whole entry): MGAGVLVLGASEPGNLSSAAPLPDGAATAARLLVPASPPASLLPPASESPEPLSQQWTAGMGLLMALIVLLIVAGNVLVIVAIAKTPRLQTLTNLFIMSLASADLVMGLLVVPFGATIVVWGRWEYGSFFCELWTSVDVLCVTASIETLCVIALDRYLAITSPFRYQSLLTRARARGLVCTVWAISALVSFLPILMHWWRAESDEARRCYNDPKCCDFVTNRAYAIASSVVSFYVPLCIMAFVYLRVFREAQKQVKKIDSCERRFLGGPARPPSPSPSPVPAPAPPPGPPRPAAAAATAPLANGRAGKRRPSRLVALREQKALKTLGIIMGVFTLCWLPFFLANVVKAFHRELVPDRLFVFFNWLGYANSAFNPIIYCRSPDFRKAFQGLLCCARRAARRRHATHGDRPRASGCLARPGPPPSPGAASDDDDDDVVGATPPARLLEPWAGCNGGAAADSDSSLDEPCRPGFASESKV
The target of the next test is T1, Progesterone receptor (Bos taurus, UniProt Q690N0).
T1 sequence (Q690N0 whole entry): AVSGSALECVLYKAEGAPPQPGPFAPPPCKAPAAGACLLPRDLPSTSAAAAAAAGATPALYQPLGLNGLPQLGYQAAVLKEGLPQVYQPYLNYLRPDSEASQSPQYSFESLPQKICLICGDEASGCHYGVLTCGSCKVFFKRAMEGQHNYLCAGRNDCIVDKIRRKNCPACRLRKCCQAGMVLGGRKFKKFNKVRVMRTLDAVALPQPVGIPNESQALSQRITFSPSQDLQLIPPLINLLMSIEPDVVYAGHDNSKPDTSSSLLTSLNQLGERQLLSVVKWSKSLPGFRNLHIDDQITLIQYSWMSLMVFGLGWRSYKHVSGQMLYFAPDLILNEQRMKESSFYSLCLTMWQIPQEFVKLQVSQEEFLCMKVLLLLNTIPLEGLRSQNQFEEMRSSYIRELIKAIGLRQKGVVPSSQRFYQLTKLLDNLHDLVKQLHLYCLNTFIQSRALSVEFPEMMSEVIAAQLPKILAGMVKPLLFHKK
The experiment in a line: DRUGMATRIX: Progesterone radioligand binding (ligand: [3H] R-5020). Particulars: Not Active = under 50% inhibition at 10 µM; for pIC50: read-out: IC50; for pKi: read-out: Ki. Type of test: tissue-based, Uterus.

The next test addresses Adenosine receptor A2a (Homo sapiens, UniProt P29274). Briefly: DRUGMATRIX: Adenosine A2A radioligand binding (ligand: […]). It counts as cell membranes, HEK293, Membrane. The note with it: Not Active = under 50% inhibition at 10 µM; for IC50: hek293.
Test [3] can be described thus: DRUGMATRIX: ATPase, Na+/K+ enzyme inhibition (substrate: ATP). The note with it: Not Active = under 50% inhibition at 10 µM. It counts as tissue-based, Sus scrofa, Heart.

Adenosine receptor A2a, sequence (P29274 whole entry): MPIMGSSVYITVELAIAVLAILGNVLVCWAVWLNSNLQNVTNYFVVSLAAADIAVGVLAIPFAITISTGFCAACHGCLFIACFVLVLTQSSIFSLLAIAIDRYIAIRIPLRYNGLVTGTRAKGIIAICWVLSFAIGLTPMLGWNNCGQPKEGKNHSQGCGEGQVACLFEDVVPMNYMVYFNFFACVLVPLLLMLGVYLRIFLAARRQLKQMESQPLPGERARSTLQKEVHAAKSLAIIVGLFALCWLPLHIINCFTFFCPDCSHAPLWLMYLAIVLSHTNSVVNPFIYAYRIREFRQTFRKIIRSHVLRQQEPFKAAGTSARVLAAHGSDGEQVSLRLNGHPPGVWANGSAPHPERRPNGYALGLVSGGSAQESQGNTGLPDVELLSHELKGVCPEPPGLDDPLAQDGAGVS

Regarding `CC(=O)[C@@]1(O)CC[C@H]2[C@@H]3CCC4=CC(=O)CC[C@]4(C)[C@H]3CC[C@@]21C` [HYDROXYPROGESTERONE], the IC50 result (in test [1]; in test [2]; on Adenosine receptor A2a; in test [3]) was “Not Active” throughout. Besides, the pIC50 on Progesterone receptor was 7.92. In addition, the pKi at Progesterone receptor is 8.81. For the same molecule, the Ki entry in test [3] is given as “Not Active”.
On to `O=C(N/N=C/c1ccc([N+](=O)[O-])o1)c1cc([N+](=O)[O-])cc([N+](=O)[O-])c1O` [NIFURSOL], for which the IC50 result (in test [1]; in test [2]; at Progesterone receptor; at Adenosine receptor A2a; in test [3]) was “Not Active” throughout. The Ki entry in test [3] was “Not Active”.
`Oc1cccc(O)c1O` [PYROGALLOL]: the IC50 entry (in test [1]; in test [2]; on Progesterone receptor; at Adenosine receptor A2a; in test [3]) was “Not Active” in each case. Further, the Ki result in test [3] is recorded as “Not Active”.
Regarding `COc1cc2nc(N3CCN(C(=O)c4ccco4)CC3)nc(N)c2cc1OC` [PRAZOSIN], the IC50 result (in test [1]; in test [2]; on Progesterone receptor; on Adenosine receptor A2a; in test [3]) was “Not Active” in each case. For the same molecule, the Ki entry in test [3] is “Not Active”.
Regarding `NNc1nncc2ccccc12` [HYDRALAZINE], the IC50 result (in test [1]; in test [2]; at Progesterone receptor; at Adenosine receptor A2a; in test [3]) was “Not Active” each time. Further, the Ki entry in test [3] is “Not Active”.
As to `C[C@]12C=CC(=O)C=C1CC[C@@H]1[C@@H]2[C@@H](O)C[C@@]2(C)[C@H]1CC[C@]2(O)C(=O)CO` [PREDNISOLONE], the IC50 entry (in test [1]; in test [2]; at Progesterone receptor; at Adenosine receptor A2a; in test [3]) was “Not Active” throughout. Besides, the Ki result in test [3] is “Not Active”.
For `NCCCC(O)(P(=O)(O)O)P(=O)(O)O` [ALENDRONIC ACID], the IC50 entry (in test [1]; in test [2]; on Progesterone receptor; at Adenosine receptor A2a; in test [3]) was “Not Active” each time. The Ki result in test [3] is “Not Active”.
For `O=C1O[C@H]([C@@H](O)CO)C(O)=C1O` [ASCORBIC ACID], the IC50 entry (in test [1]; in test [2]; on Progesterone receptor; at Adenosine receptor A2a; in test [3]) was “Not Active” in each case. The Ki entry in test [3] was “Not Active”.
For the molecule `C[n+]1ccccc1/C=N/O.[Cl-]` [PRALIDOXIME CHLORIDE], the IC50 result (in test [1]; in test [2]; on Progesterone receptor; on Adenosine receptor A2a; in test [3]) was “Not Active” throughout. Besides, the Ki entry in test [3] is recorded as “Not Active”.
Regarding `COc1ccc2c3c1O[C@H]1C[C@@H](O)C=C[C@@]31CCN(C)C2` [GALANTAMINE], the IC50 entry (in test [1]; in test [2]; at Progesterone receptor; on Adenosine receptor A2a; in test [3]) was “Not Active” each time. Moreover, in test [3], the Ki entry is listed as “Not Active”.
On to `COC1=C(OC)C(=O)C(CCCCCCCCCCO)=C(C)C1=O` [IDEBENONE], for which the IC50 result (in test [1]; in test [2]; on Progesterone receptor; at Adenosine receptor A2a; in test [3]) was “Not Active” throughout. For the same molecule, the Ki entry in test [3] was “Not Active”.
Turning to `CCC1(CCC(C)C)C(=O)NC(=O)NC1=O` [AMOBARBITAL], the IC50 entry (in test [1]; in test [2]; on Progesterone receptor; at Adenosine receptor A2a; in test [3]) was “Not Active” throughout. For the same molecule, the Ki result in test [3] is reported as “Not Active”.
For `COc1ccc2[nH]cc(CCNC(C)=O)c2c1` [MELATONIN], the IC50 entry (in test [1]; in test [2]; at Progesterone receptor; at Adenosine receptor A2a; in test [3]) was “Not Active” each time. For the same molecule, the Ki entry in test [3] was “Not Active”.
Turning to `O=C/C=C/c1ccccc1`, the IC50 entry (in test [1]; in test [2]; on Progesterone receptor; at Adenosine receptor A2a; in test [3]) was “Not Active” each time. The Ki result in test [3] is “Not Active”.
As to `CN(C)CC[C@@H](c1ccc(Cl)cc1)c1ccccn1` [DEXCHLORPHENIRAMINE], the negative-log IC50 (pIC50) in test [1] was 5.78. Moreover, the pKi in test [1] was 6.16. In addition, the IC50 entry (in test [2]; at Progesterone receptor; at Adenosine receptor A2a; in test [3]) was “Not Active” in each case. For the same molecule, the Ki entry in test [3] is “Not Active”.
`COc1ccc2cc3[n+](cc2c1OC)CCc1cc2c(cc1-3)OCO2.[Cl-]` [BERBERINE CHLORIDE]: the pIC50 in test [1] is 5.89. In addition, the pKi in test [1] is 6.27. The IC50 entry (in test [2]; at Progesterone receptor; at Adenosine receptor A2a; in test [3]) was “Not Active” in each case. The Ki result in test [3] was “Not Active”.
For the molecule `OC(CCCN1CCCCC1)(c1ccccc1)c1ccccc1` [DIPHENIDOL], the negative-log IC50 (pIC50) in test [1] was 6.59. In test [1], the pKi is 6.97. The IC50 entry (in test [2]; on Progesterone receptor; on Adenosine receptor A2a; in test [3]) was “Not Active” throughout. Further, in test [3], the Ki entry is listed as “Not Active”.
On to `CC(=O)O[C@H]1C(=O)[C@@]2(C)[C@H]([C@H](OC(=O)c3ccccc3)[C@]3(O)C[C@H](OC(=O)[C@H](O)[C@@H](NC(=O)c4ccccc4)c4ccccc4)C(C)=C1C3(C)C)[C@]1(OC(C)=O)CO[C@@H]1C[C@@H]2O` [PACLITAXEL], for which the IC50 entry (in test [1]; in test [2]; on Progesterone receptor; at Adenosine receptor A2a; in test [3]) was “Not Active” in each case. Moreover, the Ki entry in test [3] is on record as “Not Active”.
Turning to `CC1(C)S[C@@H]2[C@H](NC(=O)[C@H](N)c3ccccc3)C(=O)N2[C@H]1C(=O)O` [AMPICILLIN], the IC50 entry (in test [1]; in test [2]; on Progesterone receptor; on Adenosine receptor A2a; in test [3]) was “Not Active” throughout. For the same molecule, in test [3], the Ki entry is on record as “Not Active”.
On to `Cn1c(=O)c2c(ncn2CC(O)CO)n(C)c1=O` (configuration not stated) [DYPHYLLINE], for which the IC50 entry (in test [1]; in test [2]; on Progesterone receptor; at Adenosine receptor A2a; in test [3]) was “Not Active” each time. Moreover, the Ki entry in test [3] was “Not Active”.
Turning to `CN(C)[C@@H]1C(O)=C(C(N)=O)C(=O)[C@@]2(O)C(O)=C3C(=O)c4c(O)ccc(Cl)c4[C@@](C)(O)[C@H]3C[C@@H]12` [CHLORTETRACYCLINE], the IC50 entry (in test [1]; in test [2]; at Progesterone receptor; on Adenosine receptor A2a; in test [3]) was “Not Active” each time. In addition, in test [3], the Ki entry is on record as “Not Active”.
Consider `C[C@H]1O[C@@H](n2cc(F)c(=O)[nH]c2=O)[C@H](O)[C@@H]1O` [DOXIFLURIDINE], for which the IC50 result (in test [1]; in test [2]; at Progesterone receptor; on Adenosine receptor A2a; in test [3]) was “Not Active” in each case. For the same molecule, in test [3], the Ki entry is given as “Not Active”.
Take `CC(C(=O)O)c1ccc2oc(-c3ccc(Cl)cc3)nc2c1` (configuration not stated) [BENOXAPROFEN]: the IC50 entry (in test [1]; in test [2]; at Progesterone receptor; at Adenosine receptor A2a; in test [3]) was “Not Active” each time. In test [3], the Ki entry is given as “Not Active”.
With `Oc1c(Cl)cc(Cl)c(Cl)c1Cc1c(O)c(Cl)cc(Cl)c1Cl` [HEXACHLOROPHENE], the IC50 entry (in test [1]; in test [2]; at Progesterone receptor) was “Not Active” each time. The pIC50 was 5.79 on Adenosine receptor A2a (read-out: IC50) and 5.21 in test [3] (read-out: IC50). Further, the pKi on Adenosine receptor A2a (read-out: Ki) was 6.04.
Consider `C#C[C@]1(OC(C)=O)CC[C@H]2[C@@H]3CCC4=C[C@@H](OC(C)=O)CC[C@@H]4[C@H]3CC[C@@]21C` [ETHYNODIOL DIACETATE], for which the IC50 result (in test [1]; in test [2]; on Adenosine receptor A2a; in test [3]) was “Not Active” throughout. The pIC50 at Progesterone receptor is 6.80. At Progesterone receptor, the negative logarithm of the Ki (pKi) is 7.68. Moreover, in test [3], the Ki result is reported as “Not Active”.
Regarding `CCC(=O)O[C@]1(C(=O)CCl)[C@@H](C)C[C@H]2[C@@H]3CCC4=CC(=O)C=C[C@]4(C)[C@@]3(F)[C@@H](O)C[C@@]21C` [CLOBETASOL PROPIONATE], the IC50 entry (in test [1]; in test [2]; on Adenosine receptor A2a; in test [3]) was “Not Active” throughout. Besides, the pIC50 on Progesterone receptor is 7.92. Besides, at Progesterone receptor, the pKi is 8.82. In addition, the Ki result in test [3] is “Not Active”.
